Our source for the melting point and IC50 values is patent US20210221784A1, “COMPOUNDS AND COMPOSITIONS FOR THE TREATMENT OF PAIN” (Université de Strasbourg, priority 2018, published 2021).

For data set [1], the target named is T1, human NPFFR1 (hNPFFR1) receptor (Homo sapiens, UniProt Q9GZQ6).
T1 construct: expressed in transfected cells; host or cells: HEK-293 T cells, transient co-transfection
Briefly: Human NPFFR1 evaluation using BRET biosensors in HEK-293 T cells. The data set is classed as cell-based. Particulars: hNPFFR1 in HEK-293 T cells, stimulated by EC80 RFRP-3, read-out: IC50 of antagonist activity. The protocol: Compounds of the present invention were tested successively for their agonist and antagonist activities on human NPFFR1 (hNPFFR1) receptor transiently over-expressed in HEK-293 T cells. Compounds exert agonist activity if, by themselves in absence of neuropeptide RFRP-3 (also named NPVF) they activate hNPFFR1; and they exert antagonist activity if they decrease the action of RFRP-3 on the receptor. The assay used to measure compound activity is based on BRET (Bioluminescence Resonance Energy Transfer) biosensors and is designed to monitor the plasma membrane translocation of protein that interacts with specific Ga subunit. The specific effector (luciferase tagged: BRET donor) recruited at the membrane will be in close proximity to a plasma membrane anchor (GFP tagged: BRET acceptor) to induce a BRET signal (Ramdan et al, 2006, Chapter 5, Current Protocols in Neuroscience).
HEK-293 T cells are maintained in Dulbecco's Modified Eagle's Medium supplemented with 10% Foetal Calf Serum, 1% Penicillin/Streptomycin at 37° C./5% CO2. Cells are co-transfected using polyethylenimine (25 kDa linear) with four DNA plasmids encoding; hNPFFR1, GαoB, a Gi family specific intracellular effector fused to luciferase (BRET donor), a plasma membrane effector fused to GFP (BRET acceptor). After transfection, cells are cultured for 48 h at 37° C./5% CO2.
Receptor activity is detected by changes in BRET signal.
On the day of the assay, cells are detached using trypsin 0.05%, resuspended in assay buffer (1.8 mM CaCl2, 1 mM MgCl2, 2.7 mM KCl, 137 mM NaCl, 0.4 mM NaH2PO4, 5.5 mM D-Glucose, 11.9 mM NaHCO3, 25 mM Hepes) and seeded in 384 well plate at a density of 20,000 cells per well. Then, plates are equilibrated 3.5 hours at 37° C. before adding compounds.
Compounds and luciferase substrate are added to the cells using an automated device (Freedom Evo®, Tecan) and BRET readings are collected on EnVision (PerkinElmer) with specific filters (410 nm BW 80 nm, 515 nm BW 30 nm).
Agonist and antagonist activities of compounds are consecutively evaluated on the same cell plate. Agonist activity is first measured after 10 minutes incubation with compound alone on the cells. Then, cells are stimulated by an EC80 RFRP-3 concentration and luminescence is recorded for additional 10 minutes. EC80 RFRP-3 concentration is the concentration giving 80% of the maximal RFRP-3 response. Agonist or antagonist activities are evaluated in comparison to basal signals evoked by assay buffer or EC80 RFRP-3 alone, respectively.
For IC50 determination, a dose-response test is performed using 20 concentrations (ranging over 6 logs) of each compound. Dose-response curves are fitted using the sigmoidal dose-response (variable slope) analysis in GraphPad Prism software (GraphPad Software) and IC50 of antagonist activity is calculated. Dose-response experiments are performed in duplicate, in two independent experiments.
For orientation: BRET reads energy transfer from a luciferase to a nearby fluorophore.

For orientation: melting point means the temperature, or range, at which the solid turns liquid. By IC50 is commonly meant the midpoint of a concentration-inhibition curve.

T1 sequence (Q9GZQ6 whole entry): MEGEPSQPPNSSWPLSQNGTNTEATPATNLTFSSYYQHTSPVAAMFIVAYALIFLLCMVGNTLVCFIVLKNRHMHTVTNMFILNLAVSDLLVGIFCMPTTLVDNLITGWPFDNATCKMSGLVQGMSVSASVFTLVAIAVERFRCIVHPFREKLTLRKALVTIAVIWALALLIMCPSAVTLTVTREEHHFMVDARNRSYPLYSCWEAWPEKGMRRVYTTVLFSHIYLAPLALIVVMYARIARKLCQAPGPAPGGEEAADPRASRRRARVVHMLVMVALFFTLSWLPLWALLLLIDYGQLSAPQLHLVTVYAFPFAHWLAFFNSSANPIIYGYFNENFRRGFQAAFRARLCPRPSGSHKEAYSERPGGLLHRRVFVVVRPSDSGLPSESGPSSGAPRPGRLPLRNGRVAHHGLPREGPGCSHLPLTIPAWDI

`Cc1nc(F)ccc1-c1ccc(N)nc1N` [Compound 85, 3-(6-fluoro-2-methyl-3-pyridyl)pyridine-2,6-diamine] returned a melting point of 186 to 192 °C. For the same compound, the IC50 in data set [1] is more than 1000 nM.

`Cc1cc(N)ncc1-c1cccc(Cl)c1Cl` [Compound 22, 5-(2,3-Dichloro-phenyl)-4-methyl-pyridin-2-ylamine] registered a melting point of 94 to 97 °C. Besides, in data set [1], the IC50 was more than 1000 nM.

On to `COc1ccc2ccccc2c1-c1ccc(N)nc1N` [Compound 69, 3-(2-methoxy-1-naphthyl)pyridine-2,6-diamine], for which the melting point fell in the range of 63 to 67 °C. Besides, in data set [1], the IC50 lay in the range of 100 to 500 nM.

The compound `Cc1cc(C(F)(F)F)ccc1-c1ccc(N)nc1N` [Compound 57, 3-(2-Methyl-4-trifluoromethyl-phenyl)-pyridine-2,6-diamine] showed a melting point of 60 to 65 °C. Also, the IC50 in data set [1] was more than 1000 nM.

Consider `Cl.Nc1ccc(-c2ccc(Cl)c3ccccc23)c(N)n1` [Compound 73, 3-(4-chloro-1-naphthyl)pyridine-2,6-diamine], for which the melting point lay in the range of 135 to 140 °C. The IC50 in data set [1] is less than 100 nM.

As for `Nc1ccc(-c2cccc3ccccc23)c(N)n1` [Compound 68, 3-(1-naphthyl)pyridine-2,6-diamine], the melting point lay within 152 to 158 °C. Also, in data set [1], the IC50 is less than 100 nM.

`CCc1nc(N)ccc1-c1ccccc1OC1CC1.Cl` [Compound 31, 5-[2-(cyclopropoxy)phenyl]-6-ethyl-pyridin-2-amine]: the melting point was 60 to 80 °C. Further, in data set [1], the IC50 is less than 100 nM.

On to `COc1ccccc1-c1ccc(N)nc1C` [Compound 26, 5-(2-Methoxy-phenyl)-6-methyl-pyridin-2-ylamine], for which the melting point lay in the range of 132 to 140 °C. In addition, the IC50 in data set [1] was more than 1000 nM.

For the compound `CC(C)Oc1ccc(F)cc1-c1ccc(N)nc1N` [Compound 50, 3-(5-Fluoro-2-isopropoxy-phenyl)-pyridine-2,6-diamine], the melting point is 93 to 97 °C. The half-maximal inhibitory concentration (IC50) in data set [1] is 500 to 1000 nM.

`Nc1ccc(-c2ccc(F)cc2Cl)c(N)n1` [Compound 45, 3-(2-Chloro-4-fluoro-phenyl)-pyridine-2,6-diamine] yielded a melting point of 150 to 155 °C. Besides, in data set [1], the IC50 was 500 to 1000 nM.

Compound `Cc1cc(Cl)ccc1-c1ccc(N)nc1N` [Compound 54, 3-(4-Chloro-2-methyl-phenyl)-pyridine-2,6-diamine] gave a melting point of 80 to 85 °C. The IC50 in data set [1] is more than 1000 nM.

The compound `Cc1ncccc1-c1ccc(N)nc1N` [Compound 84, 3-(2-methyl-3-pyridyl)pyridine-2,6-diamine] registered a melting point of 192 to 198 °C. The IC50 in data set [1] is more than 1000 nM.

In the case of `Cc1ccc(OC(C)C)c(-c2ccc(N)nc2N)c1` [Compound 49, 3-(2-Isopropoxy-5-methyl-phenyl)-pyridine-2,6-diamine], the melting point is 78 to 81 °C. The IC50 in data set [1] is 500 to 1000 nM.

With `Cl.Nc1ccc(-c2ccc(F)c3ccccc23)c(N)n1` [Compound 72, 3-(4-fluoro-1-naphthyl)pyridine-2,6-diamine], the melting point lay in the range of 119 to 126 °C. Further, the IC50 in data set [1] is less than 100 nM.

For `Nc1ccc(-c2ccc(Cl)cc2F)c(N)n1` [Compound 41, 3-(4-Chloro-2-fluoro-phenyl)-pyridine-2,6-diamine], the melting point lay in the range of 134 to 139 °C. Also, the IC50 in data set [1] was more than 1000 nM.

The compound `CS(=O)(=O)c1ccccc1-c1ccc(N)nc1N.Cl` [Compound 63, 3-(2-methylsulfonylphenyl)pyridine-2,6-diamine] returned a melting point of 55 to 65 °C. For the same compound, in data set [1], the 50% inhibitory concentration (IC50) was more than 1000 nM.

In the case of `COc1ccccc1-c1c(C)cc(N)nc1C` [Compound 27, 5-(2-Methoxy-phenyl)-4,6-dimethyl-pyridin-2-ylamine], the melting point is 178 to 181 °C. For the same compound, the IC50 in data set [1] is more than 1000 nM.

Turning to `Cc1cccc(C)c1-c1ccc(N)nc1N` [Compound 51, 3-(2,6-Dimethyl-phenyl)-pyridine-2,6-diamine], the melting point fell in the range of 104 to 108 °C. Further, the IC50 in data set [1] lay within 100 to 500 nM.

For `CSc1ccccc1-c1ccc(N)nc1N.Cl` [Compound 59, 3-(2-Methylsulfanyl-phenyl)-pyridine-2,6-diamine], the melting point is 73 to 78 °C. For the same compound, the IC50 in data set [1] was in the range of 100 to 500 nM.

With `Cl.Nc1ccc(-c2ccc(O)c3ccccc23)c(N)n1` [Compound 74, 4-(2,6-diamino-3-pyridyl)naphthalen-1-ol], the melting point lay within 160 to 166 °C. Further, in data set [1], the IC50 fell in the range of 500 to 1000 nM.

Regarding `Cc1cccc(-c2ccc(N)nc2N)c1Cl` [Compound 58, 3-(2-chloro-3-methyl-phenyl)-pyridine-2,6-diamine], the melting point was 109 to 114 °C. Besides, in data set [1], the IC50 lay in the range of 100 to 500 nM.

`CC(C)Oc1ccc2ccccc2c1-c1ccc(N)nc1N` [Compound 70, 3-(2-isopropoxy-1-naphthyl)pyridine-2,6-diamine]: the melting point is 40 to 43 °C. Also, the IC50 in data set [1] lay in the range of 500 to 1000 nM.

For `Cc1ccc(-c2ccc(N)nc2N)c2ccccc12.Cl` [Compound 71, 3-(4-methyl-1-naphthyl)pyridine-2,6-diamine], the melting point was 127 to 132 °C. The IC50 in data set [1] lay within 100 to 500 nM.

With `COc1ncccc1-c1ccc(N)nc1N` [Compound 89, 3-(2-methoxy-3-pyridyl)pyridine-2,6-diamine], the melting point fell in the range of 174 to 176 °C. Moreover, the IC50 in data set [1] was more than 1000 nM.

`CCc1nc(N)ccc1-c1ccccc1C1CC1.Cl` [Compound 30, 5-(2-cyclopropylphenyl)-6-ethyl-pyridin-2-amine] had a melting point of 180 to 190 °C. In addition, the IC50 in data set [1] lay within 100 to 500 nM.

`COc1ccc(-c2ccc(N)nc2N)c(C)c1` [Compound 40, 3-(4-Methoxy-2-methyl-phenyl)-pyridine-2,6-diamine] returned a melting point of 150 to 158 °C. Moreover, the IC50 in data set [1] was more than 1000 nM.

Compound `Cl.Nc1ccc(-c2ccccc2OCc2ccccc2)c(N)n1` [Compound 64, 3-(2-benzyloxyphenyl)pyridine-2,6-diamine] displayed a melting point of 50 to 60 °C. For the same compound, the IC50 in data set [1] was less than 100 nM.

The compound `CCc1nc(N)ccc1-c1ccccc1OC1CCCC1.Cl` [Compound 76, 5-[2-(cyclopentoxy)phenyl]-6-ethyl-pyridin-2-amine] yielded a melting point of 80 to 93 °C. Besides, the IC50 in data set [1] was less than 100 nM.

Compound `Cl.Nc1ccc(-c2ccccc2OCC2CC2)c(N)n1` [Compound 65, 3-[2-(cyclopropylmethoxy)phenyl]pyridine-2,6-diamine] returned a melting point of 63 to 68 °C. Moreover, in data set [1], the IC50 is less than 100 nM.

`CCc1nc(N)ccc1-c1cccc2ccccc12.Cl` [Compound 67, 6-ethyl-5-(1-naphthyl)pyridin-2-amine] came in with a melting point of 90 to 120 °C. Also, the IC50 in data set [1] fell in the range of 100 to 500 nM.

`Cc1ccc(-c2ccc(N)nc2N)c(OC(C)C)c1` [Compound 46, 3-(2-Isopropoxy-4-methyl-phenyl)-pyridine-2,6-diamine] registered a melting point of 75 to 80 °C. Also, the IC50 in data set [1] is more than 1000 nM.

For `Nc1ccc(-c2ccc(F)nc2)c(N)n1` [Compound 86, 3-(6-fluoro-3-pyridyl)pyridine-2,6-diamine], the melting point is 170 to 178 °C. Also, in data set [1], the IC50 was more than 1000 nM.

For `CC(C)Oc1ccc(C(F)(F)F)cc1-c1ccc(N)nc1N` [Compound 52, 3-(2-Isopropoxy-5-trifluoromethyl-phenyl)-pyridine-2,6-diamine], the melting point lay in the range of 100 to 103 °C. In addition, in data set [1], the IC50 was more than 1000 nM.

In turn, `COc1ccccc1-c1cnc(N)c(F)c1` [Compound 15, 3-Fluoro-5-(2-methoxy-phenyl)-pyridin-2-ylamine] showed a melting point of 75 to 79 °C.

Regarding `Nc1cc(F)c(-c2cccc(Cl)c2Cl)cn1` [Compound 17, 5-(2,3-Dichloro-phenyl)-4-fluoro-pyridin-2-ylamine], the melting point is 107 to 112 °C.

For the compound `COc1ccccc1-c1cnc(N)cc1C` [Compound 21, 5-(2-Methoxy-phenyl)-4-methyl-pyridin-2-ylamine], the melting point is 85 to 88 °C.
